Molecules are shown by their SMILES.

Assay [1] deals with T1, TBK1 (Homo sapiens, UniProt Q9UHD2).
T1 construct: purchased Promega V3991
T1 sequence (Q9UHD2 1-729): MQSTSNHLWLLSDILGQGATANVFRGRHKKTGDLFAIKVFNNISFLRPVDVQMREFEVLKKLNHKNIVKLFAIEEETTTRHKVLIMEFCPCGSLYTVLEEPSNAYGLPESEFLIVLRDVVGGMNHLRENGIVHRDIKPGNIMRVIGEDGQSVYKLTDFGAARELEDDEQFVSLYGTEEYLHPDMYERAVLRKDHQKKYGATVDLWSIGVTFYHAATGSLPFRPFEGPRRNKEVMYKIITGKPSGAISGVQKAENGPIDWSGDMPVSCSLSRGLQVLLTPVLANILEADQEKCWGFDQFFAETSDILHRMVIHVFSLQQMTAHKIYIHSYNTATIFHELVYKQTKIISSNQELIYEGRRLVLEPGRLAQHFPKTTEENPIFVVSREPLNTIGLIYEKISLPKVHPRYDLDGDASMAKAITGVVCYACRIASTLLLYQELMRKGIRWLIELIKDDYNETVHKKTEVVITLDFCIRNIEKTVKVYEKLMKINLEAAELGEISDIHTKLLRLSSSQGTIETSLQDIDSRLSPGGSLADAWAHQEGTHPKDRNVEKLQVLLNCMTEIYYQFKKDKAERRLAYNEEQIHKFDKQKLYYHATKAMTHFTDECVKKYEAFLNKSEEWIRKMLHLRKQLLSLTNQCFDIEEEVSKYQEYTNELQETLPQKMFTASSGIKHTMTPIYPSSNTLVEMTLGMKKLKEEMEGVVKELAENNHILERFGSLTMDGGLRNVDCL
The assay can be described thus: TBK1 inhibition, ADP-Glo Kinase Assay. The settings on record: luminometer. Format: biochemical. The method, boiled down: (§1)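 ADP-Glo luminescence reported ADP produced by each kinase, following the kit protocol. Reactions used commercial kinase enzyme systems in buffer of 40 mM Tris (pH 7.5), 20 mM MgCl2 and 0.1 mg/mL BSA.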
(In ADP-Glo the light output rises with the ADP produced.)

The target in assay [2] is T2, IKKε (Homo sapiens, UniProt Q14164).
T2 construct: purchased Invitrogen PR8031B
T2 sequence (Q14164 1-716): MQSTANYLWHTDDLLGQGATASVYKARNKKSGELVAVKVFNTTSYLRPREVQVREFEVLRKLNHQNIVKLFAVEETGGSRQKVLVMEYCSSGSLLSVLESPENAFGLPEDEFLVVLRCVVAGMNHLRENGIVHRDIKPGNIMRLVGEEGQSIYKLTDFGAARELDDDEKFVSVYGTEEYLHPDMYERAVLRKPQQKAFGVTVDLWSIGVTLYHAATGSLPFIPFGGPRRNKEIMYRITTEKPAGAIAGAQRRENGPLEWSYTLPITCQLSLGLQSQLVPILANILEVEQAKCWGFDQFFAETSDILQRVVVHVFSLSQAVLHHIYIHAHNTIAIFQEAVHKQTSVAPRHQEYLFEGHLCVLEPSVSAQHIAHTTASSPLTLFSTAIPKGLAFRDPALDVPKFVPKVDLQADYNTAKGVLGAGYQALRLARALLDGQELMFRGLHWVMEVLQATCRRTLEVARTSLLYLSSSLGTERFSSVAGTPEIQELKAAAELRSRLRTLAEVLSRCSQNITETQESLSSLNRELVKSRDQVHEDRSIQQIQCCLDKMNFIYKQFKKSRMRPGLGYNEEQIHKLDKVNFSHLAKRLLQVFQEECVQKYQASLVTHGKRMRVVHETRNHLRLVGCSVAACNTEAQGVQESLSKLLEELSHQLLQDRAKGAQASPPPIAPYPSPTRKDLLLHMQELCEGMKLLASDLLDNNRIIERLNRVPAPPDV
The assay is described as follows: IKKε inhibition, ADP-Glo Kinase Assay. The note with it: luminometer. Format: biochemical. The method, boiled down:
as §1

Regarding `CC1CN(c2ccc(C(=O)Nc3n[nH]c4ccc(C(=O)NCc5cccs5)cc34)cc2)CC(C)N1` (stereo not drawn) [Example 89, 3-(4-(3,5-Dimethylpiperazin-1-yl)benzamido)-N-(thiophen-2-ylmethyl)-1H-indazole-5-carboxamide 2,2,2-trifluoroacetate], the IC50 (usually the concentration at which inhibition is half-maximal) stood at 0.0056 µM in assay [1] and 0.079 µM in assay [2].

As for `O=C(NCc1ccccc1)c1ccc2[nH]nc(NC(=O)c3ccc(N4CCOCC4)cc3)c2c1` [Example 177, N-Benzyl-3-(4-morpholinobenzamido)-1H-indazole-5-carboxamide], the IC50 in assay [1] is 0.011 µM; in assay [2] it was 0.033 µM.

Regarding `CC(C)CCNC(=O)c1ccc2[nH]nc(NC(=O)c3ccc(N4CCOCC4)cc3)c2c1` [Example 116, N-Isopentyl-3-(4-morpholinobenzamido)-1H-indazole-5-carboxamide 2,2,2-trifluoroacetate], the IC50 in assay [1] turned out to be 0.48 µM; in assay [2] it was 3.12 µM.

As to `CC(NC(=O)c1ccc2[nH]nc(NC(=O)c3ccc(N4CCN[C@@H](C)C4)cc3)c2c1)c1ccccc1` (stereo partly drawn) [Example 184, 3-(4-((8)-3-Methylpiperazin-1-yl)benzamido)-N-(1-phenylethyl)-1H-indazole-5-carboxamide 2,2,2-trifluoroacetate], the IC50 in assay [1] was determined as 0.0037 µM; in assay [2], 0.015 µM.

With `CC[C@@H](NC(=O)c1ccc2[nH]nc(NC(=O)c3ccc(N4CCN(C)CC4)cc3)c2c1)c1cccs1` [Example 112, (R)-3-(4-(4-Methylpiperazin-1-yl)benzamido)-N-(1-(thiophen-2-yl)propyl)-1H-indazole-5-carboxamide], the IC50 in assay [1] stood at 0.0042 µM; in assay [2], 0.011 µM.

For the compound `O=C(Nc1n[nH]c2ccc(C(=O)NC(c3cccs3)C3CC3)cc12)c1ccc(N2CCNCC2)cc1` (stereo not drawn) [Example 126, N-(Cyclopropyl(thiophen-2-yl)methyl)-3-(4-(piperazin-1-yl)benzamido)-1H-indazole-5-carboxamide], the IC50 in assay [1] came to 0.019 µM; in assay [2], 0.013 µM.

Turning to `O=C(NCc1cccs1)c1ccc2[nH]nc(NC(=O)c3cccc(N4CCOCC4)c3)c2c1` [Example 156, 3-(3-Morpholinobenzamido)-N-(thiophen-2-ylmethyl)-1H-indazole-5-carboxamide], the IC50 worked out at 0.077 µM in assay [1] and 0.29 µM in assay [2].

Take `CN1CCN(c2ccc(C(=O)Nc3n[nH]c4ccc(C(=O)NCc5ccco5)cc34)cc2)CC1` [Example 51, N-(Furan-2-ylmethyl)-3-(4-(4-methylpiperazin-1-yl)benzamido)-1H-indazole-5-carboxamide]: the IC50 in assay [1] is 0.0081 µM; in assay [2], 0.064 µM.

For the compound `O=C(Nc1n[nH]c2ccc(C(=O)NC3(c4cccs4)CC3)cc12)c1ccc(F)cc1` [Example 15, 3-(4-Fluorobenzamido)-N-(1-(thiophen-2-yl)cyclopropyl)-1H-indazole-5-carboxamide], the IC50 in assay [1] stood at 0.025 µM; in assay [2] it was 0.055 µM.

`CC(NC(=O)c1ccc2[nH]nc(NC(=O)c3ccc(N4CCN(C)CC4)cc3)c2c1)c1cccs1` (stereo not drawn) [Example 44, 3-(4-(4-Methylpiperazin-1-yl)benzamido)-N-(1-(thiophen-2-yl)ethyl)-1H-indazole-5-carboxamide]: the results for the IC50 in assay [1] and in assay [2] were 0.0035 µM and 0.0031 µM, respectively.

On to `CN1CCN(c2ccc(C(=O)Nc3n[nH]c4ccc(NC(=O)Cc5cccs5)cc34)cc2)CC1` [Example 141, 4-(4-Methylpiperazin-1-yl)-N-(5-(2-(thiophen-2-yl)acetamido)-1H-indazol-3-yl)benzamide], for which the values for the IC50 in assay [1] and in assay [2] were 0.024 µM and 0.38 µM, respectively.

Turning to `CN1CCN(c2ccc(C(=O)Nc3n[nH]c4ccc(C(=O)NC5(c6ccccc6)CC5)cc34)cc2)CC1` [Example 68, 3-(4-(4-Methylpiperazin-1-yl)benzamido)-N-(1-phenylcyclopropyl)-1H-indazole-5-carboxamide], the 50% inhibitory concentration (IC50) in assay [1] turned out to be 0.0006 µM; in assay [2] it was 0.0042 µM.

For the compound `CCC(NC(=O)c1ccc2[nH]nc(NC(=O)c3ccc(N4CCN(CC)CC4)cc3)c2c1)c1cccs1` (stereo not drawn) [Example 109, 3-(4-(4-Ethylpiperazin-1-yl)benzamido)-N-(1-(thiophen-2-yl)propyl)-1H-indazole-5-carboxamide], the IC50 in assay [1] came to 0.0036 µM; in assay [2], 0.025 µM.

With `O=C(NCc1cccs1)c1ccc2[nH]nc(NC(=O)c3ccc(-n4ccnc4)cc3)c2c1` [Example 212, 3-(4-(1H-Imidazol-1-yl)benzamido)-N-(thiophen-2-ylmethyl)-1H-indazole-5-carboxamide], the figures for the 50% inhibitory concentration (IC50) in assay [1] and in assay [2] were 0.078 µM and 0.36 µM, respectively.

Consider `CCC(NC(=O)c1ccc2[nH]nc(NC(=O)c3ccc(N4CC(C)OC(C)C4)cc3)c2c1)c1cccs1` (stereo not drawn) [Example 96, 3-(4-(2,6-Dimethylmorpholino)benzamido)-N-(1-(thiophen-2-yl)propyl)-1H-indazole-5-carboxamide 2,2,2-trifluoroacetate], for which the IC50 in assay [1] is 0.0051 µM; in assay [2], 0.047 µM.

As for `CN1CCN(c2ccc(C(=O)Nc3n[nH]c4ccc(C(=O)NC(C)(C)c5cccs5)cc34)cc2)CC1` [Example 136, 3-(4-(4-Methylpiperazin-1-yl)benzamido)-N-(2-(thiophen-2-yl)propan-2-yl)-1H-indazole-5-carboxamide], the IC50 in assay [1] was found to be 0.0057 µM; in assay [2], 0.024 µM.

Turning to `CC(NC(=O)c1ccc2[nH]nc(NC(=O)c3ccc(N4CCOCC4)cc3)c2c1)c1cccs1` (stereo not drawn) [Example 43, 3-(4-Morpholinobenzamido)-N-(1-(thiophen-2-yl)ethyl)-1H-indazole-5-carboxamide], the IC50 came to 0.0021 µM in assay [1] and 0.0049 µM in assay [2].

For `CC(NC(=O)c1ccc2[nH]nc(NC(=O)c3ccc(N4CCN(C)CC4)cc3)c2c1)c1ccccc1` (stereo not drawn) [Example 179, 3-(4-(4-Methylpiperazin-1-yl)benzamido)-N-(1-phenylethyl)-1H-indazole-5-carboxamide], the IC50 in assay [1] was 0.0012 µM; in assay [2], 0.019 µM.

In the case of `CCC(NCc1ccc2[nH]nc(NC(=O)c3ccc(N4CCN(C)CC4)cc3)c2c1)c1cccs1` (stereo not drawn) [Example 124], the values for the IC50 in assay [1] and in assay [2] were 2.44 µM and above 10 µM, respectively.

Turning to `Cc1noc(CNC(=O)c2ccc3[nH]nc(NC(=O)c4ccc(N5CCOCC5)cc4)c3c2)n1` [Example 100, N-((3-Methyl-1,2,4-oxadiazol-5-yl)methyl)-3-(4-morpholinobenzamido)-1H-indazole-5-carboxamide 2,2,2-trifluoroacetate], the IC50 in assay [1] stood at 0.22 µM; in assay [2], 0.95 µM.

Regarding `Cc1ccc(CNC(=O)c2ccc3[nH]nc(NC(=O)c4ccc(N5CCOCC5)cc4)c3c2)s1` [Example 60, N-((5-Methylthiophen-2-yl)methyl)-3-(4-morpholinobenzamido)-1H-indazole-5-carboxamide], the values for the IC50 in assay [1] and in assay [2] were 0.034 µM and 0.28 µM, respectively.

Turning to `CN(C)CCCNc1ccc(C(=O)Nc2n[nH]c3ccc(C(=O)NCc4cccs4)cc23)cc1` [Example 154, 3-(4-((3-(Dimethylamino)propyl)amino)benzamido)-N-(thiophen-2-ylmethyl)-1H-indazole-5-carboxamide], the values for the IC50 in assay [1] and in assay [2] were 0.0086 µM and 0.13 µM, respectively.

In the case of `CN1CCN(c2ccc(C(=O)Nc3n[nH]c4ccc(C(=O)NC(c5ccccn5)C5CC5)cc34)cc2)CC1` (stereo not drawn) [Example 140, N-(Cyclopropyl(pyridin-2-yl)methyl)-3-(4-(4-methylpiperazin-1-yl)benzamido)-1H-indazole-5-carboxamide], the values for the IC50 in assay [1] and in assay [2] were 0.084 µM and 0.27 µM, respectively.

In the case of `CCC(NC(=O)c1ccc2[nH]nc(NC(=O)c3ccc(N4CCN(C)CC4)cc3)c2c1)c1nccs1` (stereo not drawn) [Example 84, 3-(4-(4-Methylpiperazin-1-yl)benzamido)-N-(1-(thiazol-2-yl)propyl)-1H-indazole-5-carboxamide], the results for the IC50 in assay [1] and in assay [2] were 0.016 µM and 0.069 µM, respectively.
